{
  "source": "paper PMC5730575",
  "about": "“A Simple Platform for the Rapid Development of Antimicrobials” (Scientific Reports, 2017)",
  "key": {"[1]": {"test_system": "S. epidermidis", "test": "100-peptide microarray binding of S. epidermidis", "settings": "S. epidermidis labeled with CTO and AF647, 106 CFU/mL"}, "[2]": {"test_system": "A/CA/07/2009 pdm09 H1N1", "test": "100-peptide microarray binding of pdm09 H1N1", "design": "species or system influenza A/CA/07/2009 pdm09 H1N1", "settings": "two color fluorescent labeling (AF555/AF647); six replicate spots per peptide; versus background in empty spots, p < 0.01"}, "[3]": {"test_system": "A/CA/7/2009 H1N1 pdm09 hemagglutination of turkey red blood cells", "test": "Hemagglutination inhibition (HAI) assay", "format": "biochemical, influenza A/CA/07/2009 pdm09 H1N1", "settings": "peptides tested 50 µM to 1.76 µM, 2 fold dilutions; 1 HAU virus; 0.5% turkey RBC; non-inhibitors: even at 50 µM"}, "[4]": {"settings": "cited from earlier work"}},
  "data": [
    {"substance": "CSGAMHGPATTRPAIGRYPW [p52]", "values": [
      {"measurement": "binding of S. epidermidis on the peptide array", "setting": "[1]", "value": "positives binders"}
    ]},
    {"substance": "CSGAVNYQEVFNKARMKKKR [p58]", "values": [
      {"measurement": "binding of pdm09 H1N1 on the peptide array", "setting": "[2]", "value": "bound"},
      {"measurement": "inhibition of hemagglutination by pdm09 of red blood cells (peptides)", "setting": "[3]", "value": "did not prevent hemagglutination"}
    ]},
    {"substance": "CSGEWRQQKMMPKSAPNKPQ [p94]", "values": [
      {"measurement": "binding of pdm09 H1N1 on the peptide array", "setting": "[2]", "value": "did not"}
    ]},
    {"substance": "CSGFRKHPWKHPRHKFHKPW [p104]", "values": [
      {"measurement": "binding of S. epidermidis on the peptide array", "setting": "[1]", "value": "positives binders"}
    ]},
    {"substance": "CSGFWPRKHPFRWKHPRPKH [p107]", "values": [
      {"measurement": "binding of pdm09 H1N1 on the peptide array", "setting": "[2]", "value": "bound"},
      {"measurement": "inhibition of hemagglutination by pdm09 of red blood cells (peptides)", "setting": "[3]", "value": "did not prevent hemagglutination"}
    ]},
    {"substance": "CSGHNIYAQYGYPYDHMYEG [p125]", "values": [
      {"measurement": "inhibition of hemagglutination by pdm09 of red blood cells (peptides)", "setting": "[3]", "value": "inhibited hemagglutination"}
    ]},
    {"substance": "CSGKSQEIGDPDDIWNQMKW [p149]", "values": [
      {"measurement": "inhibition of hemagglutination by pdm09 of red blood cells (peptides)", "setting": "[3]", "value": "inhibited hemagglutination"}
    ]},
    {"substance": "CSGKVHRWKYHSRQNYTYRP [p151]", "values": [
      {"measurement": "binding of pdm09 H1N1 on the peptide array", "setting": "[2]", "value": "bound"},
      {"measurement": "inhibition of hemagglutination by pdm09 of red blood cells (peptides)", "setting": "[3]", "value": "did not prevent hemagglutination"}
    ]},
    {"substance": "CSGNETAPDNTYRYKQSAQK [p174]", "values": [
      {"measurement": "binding of pdm09 H1N1 on the peptide array", "setting": "[2]", "value": "bound"},
      {"measurement": "inhibition of hemagglutination by pdm09 of red blood cells (peptides)", "setting": "[3]", "value": "did not prevent hemagglutination"}
    ]},
    {"substance": "CSGQFSAKKYWEIKPMDYWK [p204]", "values": [
      {"measurement": "binding of pdm09 H1N1 on the peptide array", "setting": "[2]", "value": "bound"},
      {"measurement": "inhibition of hemagglutination by pdm09 of red blood cells (peptides)", "setting": "[3]", "value": "did not prevent hemagglutination"}
    ]},
    {"substance": "CSGSFNQEYFPYPMIDYLKK [p227]", "values": [
      {"measurement": "inhibition of hemagglutination by pdm09 of red blood cells (peptides)", "setting": "[3]", "value": "inhibited hemagglutination"}
    ]},
    {"substance": "CSGYNWSRKKHKYYPRKIAY [p43]", "values": [
      {"measurement": "binding of pdm09 H1N1 on the peptide array", "setting": "[2]", "value": "bound"},
      {"measurement": "inhibition of hemagglutination by pdm09 of red blood cells (peptides)", "setting": "[3]", "value": "did not prevent hemagglutination"}
    ]},
    {"substance": "CSGYYDVHMGPMNDNHYFKK [p228]", "values": [
      {"measurement": "binding of pdm09 H1N1 on the peptide array", "setting": "[2]", "value": "bound"},
      {"measurement": "inhibition of hemagglutination by pdm09 of red blood cells (peptides)", "setting": "[3]", "value": "did not prevent hemagglutination"}
    ]},
    {"substance": "enfuvirtide", "values": [
      {"measurement": "elimination half-life", "setting": "[4]", "value": 3.8, "unit": "h"}
    ]}
  ]
}
